Six compounds from patent US20230339886A1 (University of Florida Research Foundation, Incorporated, priority 2020, published 2023) can be followed below.

The EC50 is the midpoint of the concentration-response curve.

Assay [1] has as its target T1, REV-ERBα LBD (human; residues 281-614 Δ324-422) (Homo sapiens, UniProt P20393, DEL324-422).
T1 construct: 6×Histag-REV-ERBα LBD (human; residues 281-614 Δ324-422); made in house; host or cells: Escherichia coli
The assay is described as follows: TR-FRET corepressor interaction assay (REV-ERBα LBD, FITC-SMRT peptide). Conditions: Table 2, read-out: REVERBα agonism (EC50 class, FRET assay). It counts as biochemical. Summed up:
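Compound serial dilutions (in DMSO, triplicate) incubated 2 h at 4 °C; Tb donor excited at 340 nm, emission read at 495 nm and FITC acceptor at 520 nm. TR-FRET ratio (520/495 nm) plotted against ligand concentration and fitted to a sigmoidal dose-response curve.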

In a further assay the target is T2, REV-ERBβ (Homo sapiens, UniProt Q14995).
T2 construct: 6×Histag-REV-ERBα LBD (human; residues 381-579); made in house; host or cells: Escherichia coli
T2 sequence (Q14995 381-579): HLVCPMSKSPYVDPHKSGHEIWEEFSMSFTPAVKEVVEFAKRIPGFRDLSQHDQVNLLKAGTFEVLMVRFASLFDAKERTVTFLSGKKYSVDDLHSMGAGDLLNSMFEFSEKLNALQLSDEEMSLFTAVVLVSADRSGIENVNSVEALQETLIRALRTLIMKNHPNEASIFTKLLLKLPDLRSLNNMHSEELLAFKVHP
The assay is described as follows: TR-FRET corepressor interaction assay (REV-ERBβ, FITC-SMRT peptide). The class given is biochemical. The settings on record: Table 2, read-out: REVERBβ agonism (EC50 class, FRET assay). Summed up: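 Tb-donor/FITC-SMRT peptide TR-FRET; ligand serially diluted in DMSO, in triplicate, incubated 2 h at 4° C. Excitation at 340 nm; ratio of 520 nm to 495 nm emission plotted against ligand concentration and fitted to a sigmoidal dose-response curve.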
In general terms: TR-FRET usually uses a lanthanide donor and a delayed reading to cut background.

T1 sequence (P20393 with tags, fused parts or gaps DEL324-422): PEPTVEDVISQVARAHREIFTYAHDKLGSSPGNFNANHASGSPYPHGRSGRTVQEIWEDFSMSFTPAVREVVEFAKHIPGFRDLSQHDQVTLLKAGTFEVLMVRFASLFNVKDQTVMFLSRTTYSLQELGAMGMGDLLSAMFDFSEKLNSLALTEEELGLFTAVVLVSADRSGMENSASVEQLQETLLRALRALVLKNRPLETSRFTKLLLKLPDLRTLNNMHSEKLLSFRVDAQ
T1 sequence (Q9Y618 2335-2356 partner limits assumed): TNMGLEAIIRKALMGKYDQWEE

Turning to `CC(C)Cn1cc([C@H](NS(=O)(=O)N(C)C)C(F)(F)F)c2cc(F)c(C3CC3)cc21` [Example 329, {[(1S)-1-[6-cyclopropyl-5-fluoro-1-(2-methylpropyl)-1H-indol-3-yl]-2,2,2-trifluoroethyl]sulfamoyl}dimethylamine], the figures for the EC50 (in assay [1]; at REV-ERBβ) were below 500 nM and above 3000 nM, respectively.

Regarding `CC(C)(C)Cn1cc([C@H](NS(=O)(=O)C2CC2)C(F)(F)F)c2cc(F)c(-c3ccccc3Cl)cc21` [Example 331, (S)—N-(1-(6-(2-chlorophenyl)-5-fluoro-1-neopentyl-1H-indol-3-yl)-2,2,2-trifluoroethyl)cyclopropanesulfonamide], the EC50 in assay [1] was below 500 nM; on REV-ERBβ, 500 to 3000 nM.

For `CC(C)Cn1cc([C@H](NS(=O)(=O)C2CC2)C(F)(F)F)c2ccc(C(C)C)cc21` [Example 333, (S)—N-(2,2,2-trifluoro-1-(1-isobutyl-6-isopropyl-1H-indol-3-yl)ethyl)cyclopropanesulfonamide], the concentration for a half-maximal effect (EC50) in assay [1] was below 500 nM; on REV-ERBβ it was above 3000 nM.

For `CC(C)c1ccc2c([C@H](NS(=O)(=O)N(C)C)C(F)(F)F)cn(CC(C)(C)C)c2c1` [Example 340, {[(1S)-1-[1-(2,2-dimethylpropyl)-6-(propan-2-yl)-1H-indol-3-yl]-2,2,2-trifluoroethyl]sulfamoyl}dimethylamine], the EC50 was below 500 nM in assay [1] and 500 to 3000 nM on REV-ERBβ.

In the case of `CC(C)(C)Cn1cc([C@H](NS(=O)(=O)C2CC2)C(F)(F)F)c2cc(F)c(Br)cc21` [Example 342, (S)—N-(1-(6-bromo-5-fluoro-1-neopentyl-1H-indol-3-yl)-2,2,2-trifluoroethyl)cyclopropanesulfonamide], the EC50 in assay [1] is below 500 nM; on REV-ERBβ, above 3000 nM.

In the case of `CC(C)Cc1cn(CCNS(=O)(=O)C2CC2)c2ncc(-c3ccncc3)cc12` [Example 365, N-(2-(3-isobutyl-5-(pyridin-4-yl)-1H-pyrrolo[2,3-b]pyridin-1-yl)ethyl)cyclopropanesulfonamide], the results for the EC50 (in assay [1]; on REV-ERBβ) were below 500 nM and above 3000 nM, respectively.
